Test results reported in patent US6737383B1, “Herbicidal oxadiazolidines” (priority 1999, dated 2004).

Experiments:
Green foxtail [1] = assay: Test D green foxtail; type: in vivo; settings: Postemergence, 0 to 100 scale, 0 no injury, 100 complete control
Alexandergrass = assay: Test D Alexandergrass; type: in vivo, Brachiaria plantaginea; settings: Postemergence, 0 to 100 scale
guineagrass = assay: Test D guineagrass; type: in vivo, Panicum maximum; settings: Postemergence, 0 to 100 scale
Green foxtail [2] = assay: Test D green foxtail; type: in vivo; settings: Rate 250 g/ha; Postemergence; 0 to 100 scale
common pursiane = assay: Test D common purslane; type: in vivo, Portulaca oleracea; settings: Postemergence, 0 to 100 scale
large crabgrass = assay: Test D large crabgrass; type: in vivo, Digitaria sanguinalis; settings: Postemergence, 0 to 100 scale
purple nutsedge = assay: Test D purple nutsedge; type: in vivo, Cyperus rotundus; settings: Postemergence, 0 to 100 scale
wild oat = assay: Test B pre/postemergence wild oat; type: in vivo, Avena fatua; settings: for Wild oats plant response rating: scale of 0 to 10 where 0 is no effect and 10 is complete control
Method in brief: (§1)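 Herbicidal effect was estimated by eye on a ten-point control scale after plants spent twelve to sixteen days in a greenhouse following soil or foliar treatment. Foliar sprays targeted plants at one to four leaves; all doses were formulated in a non-phytotoxic solvent with surfactant.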

bedstraw = assay: Test B pre/postemergence bedstraw; type: in vivo, Galium aparine
Method in brief: as §1

common groundsel = assay: Test D common groundsel; type: in vivo, Senecio vulgaris; settings: Postemergence, 0 to 100 scale
soybean = assay: Test B pre/postemergence soybean; type: in vivo, Glycine max; settings: for Soybean plant response rating: scale of 0 to 10 where 0 is no effect and 10 is complete control
Method in brief: as §1

bamyardgrass = assay: Test B flood test barnyardgrass; type: in vivo, Echinochloa crus-galli
Method in brief: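 Flood test on plants grown to the 2-leaf stage; treated plants kept in greenhouse twelve to sixteen days, then visually rated against controls on a 0 (no effect) to 10 (complete control) scale.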

pitted morningglory = assay: Test D pitted morningglory; type: in vivo, Ipomoea lacunosa; settings: Postemergence, 0 to 100 scale
surinam grass = assay: Test D surinam grass; type: in vivo, Brachiaria decumbens; settings: Postemergence, 0 to 100 scale
[3] = Rate 16 g/ha, 0 no injury, 100 complete control
[4] = Rate 32 g/ha, 0 no injury, 100 complete control
[5] = Rate 64 g/ha, 0 no injury, 100 complete control
[6] = Rate 125 g/ha, 0 no injury, 100 complete control
[7] = Postemergence, Rate 125 g/ha, scale 0 to 10, 0 is no effect, 10 is complete control
[8] = Preemergence, Rate 62 g/ha, scale 0 to 10 (0 no effect, 10 complete control)
[9] = Rate 500 g/ha, Postemergence, scale 0 to 10, 0 no effect, 10 complete control

For `CCC(CC)n1c(=O)on(C(=O)N(c2ccc(F)cc2)C(C)C)c1=O` [Compound 358], which “Plant response rating, Green foxtail” value (Green foxtail [1]; Rate 16 g/ha) is on record?
The value was 0.

What about the “Plant response rating, Green foxtail” value (Green foxtail [1]; Rate 32 g/ha) of the same compound?
The value was 30.

And the “Plant response rating, Alexandergrass” value (Alexandergrass; [3])?
The value was 0.

What about the “Plant response rating, Alexandergrass” value (Alexandergrass; [4]) of the same compound?
The value was 0.

And the “Plant response rating, Alexandergrass” value (Alexandergrass; [5])?
Its value is 100.

And the “Plant response rating, Alexandergrass” value (Alexandergrass; [6])?
The value was 90.

What about the “Plant response rating, Alexandergrass” value (Alexandergrass; Rate 250 g/ha) of the same compound?
Its value is 100.

What about the “Plant response rating, Guineagrass” value (guineagrass; [3]) of the same compound?
Its value is 0.

And the “Plant response rating, Guineagrass” value (guineagrass; [4])?
The value was 0.

What about the “Guineagrass plant response rating” value (guineagrass; [5]) of the same compound?
The value was 20.

What about the “Plant response rating, Guineagrass” value (guineagrass; [5]) of the same compound?
The value was 100.

And the “Plant response rating, Guineagrass” value (guineagrass; [6])?
Its value is 100.

And the “Plant response rating, Guineagrass” value (guineagrass; Rate 250 g/ha)?
The value was 100.

And the “Plant response rating, Green foxtail” value (Green foxtail [2])?
Its value is 100.

And the “Plant response rating, C. purslane” value (common pursiane; [3])?
The value was 0.

What about the “Plant response rating, C. purslane” value (common pursiane; [4]) of the same compound?
Its value is 0.

What about the “Plant response rating, C. purslane” value (common pursiane; [5]) of the same compound?
Its value is 0.

What about the “Plant response rating, C. purslane” value (common pursiane; [6]) of the same compound?
Its value is 0.

And the “Plant response rating, C. purslane” value (common pursiane; Rate 250 g/ha)?
Its value is 0.

What about the “Plant response rating, Large crabgrass” value (large crabgrass; [3]) of the same compound?
Its value is 0.

What about the “Plant response rating, Large crabgrass” value (large crabgrass; [4]) of the same compound?
Its value is 40.

What about the “Plant response rating, Large crabgrass” value (large crabgrass; [5]) of the same compound?
Its value is 100.

What about the “Plant response rating, Large crabgrass” value (large crabgrass; [6]) of the same compound?
Its value is 100.

What about the “Plant response rating, Large crabgrass” value (large crabgrass; Rate 250 g/ha) of the same compound?
Its value is 100.

What about the “Plant response rating, Purple nutsedge” value (purple nutsedge; [3]) of the same compound?
The value was 0.

And the “Plant response rating, Purple nutsedge” value (purple nutsedge; [4])?
Its value is 0.

What about the “Purple nutsedge plant response rating” value (purple nutsedge; [5]) of the same compound?
Its value is 0.

What about the “Purple nutsedge plant response rating” value (purple nutsedge; [6]) of the same compound?
Its value is 0.

What about the “Plant response rating, Purple nutsedge” value (purple nutsedge; Rate 250 g/ha) of the same compound?
The value was 10.

What about the “Plant response rating, Wild oats” value (wild oat; [7]) of the same compound?
Its value is 3.

What about the “Plant response rating, Wild oats” value (wild oat; [8]) of the same compound?
The value was 4.

And the “Wild oats plant response rating (0 to 10 scale)” value (wild oat; Preemergence, Rate 125 g/ha)?
Its value is 5.

What about the “Wild oats plant response rating” value (wild oat; Preemergence, Rate 250 g/ha) of the same compound?
Its value is 9.

What about the “Wild oats plant response rating” value (wild oat; Preemergence, Rate 500 g/ha) of the same compound?
The value was 10.

And the “Wild oats plant response rating” value (wild oat; Rate 62 g/ha, Postemergence)?
Its value is 0.

What about the “Plant response rating, Wild oats” value (wild oat; [9]) of the same compound?
Its value is 7.

What about the “Plant response rating, Bedstraw” value (bedstraw; [7]) of the same compound?
The value was 2.

And the “Plant response rating, Bedstraw” value (bedstraw; [8])?
Its value is 0.

And the “Bedstraw plant response rating (0 to 10 scale)” value (bedstraw; Preemergence, Rate 125 g/ha)?
Its value is 9.

And the “Bedstraw plant response rating” value (bedstraw; Preemergence, Rate 250 g/ha, scale of 0 to 10 where 0 is no effect and 10 is complete control)?
The value was 10.

And the “Bedstraw plant response rating” value (bedstraw; Preemergence, Rate 500 g/ha, scale of 0 to 10 where 0 is no effect and 10 is complete control)?
The value was 10.

And the “Bedstraw plant response rating” value (bedstraw; Rate 62 g/ha, Postemergence, scale of 0 to 10 where 0 is no effect and 10 is complete control)?
Its value is 0.

And the “Plant response rating, Bedstraw” value (bedstraw; Rate 250 g/ha, Postemergence, scale of 0 to 10 where 0 is no effect and 10 is complete control)?
The value was 3.

What about the “Plant response rating, Bedstraw” value (bedstraw; [9]) of the same compound?
The value was 6.

And the “Plant response rating, Com. groundsel” value (common groundsel; [3])?
Its value is 0.

What about the “Plant response rating, Com. groundsel” value (common groundsel; [4]) of the same compound?
Its value is 0.

What about the “Plant response rating, Com. groundsel” value (common groundsel; [5]) of the same compound?
The value was 0.

And the “Plant response rating, Com. groundsel” value (common groundsel; Rate 250 g/ha)?
The value was 40.

What about the “Plant response rating, Soybean” value (soybean; [7]) of the same compound?
The value was 4.

What about the “Plant response rating, Soybean” value (soybean; [8]) of the same compound?
The value was 0.

And the “Soybean plant response rating (0 to 10 scale)” value (soybean; Preemergence, Rate 125 g/ha)?
Its value is 0.

What about the “Soybean plant response rating” value (soybean; Preemergence, Rate 250 g/ha) of the same compound?
The value was 0.

What about the “Soybean plant response rating” value (soybean; Preemergence, Rate 500 g/ha) of the same compound?
The value was 1.

And the “Soybean plant response rating” value (soybean; Rate 62 g/ha, Postemergence)?
Its value is 4.

And the “Plant response rating, Soybean” value (soybean; [9])?
Its value is 7.

What about the “Plant response rating, Barnyardgrass” value (bamyardgrass; Postemergence (flood test), Rate 125 g/ha, scale 0 to 10, 0 is no effect, 10 is complete control) of the same compound?
Its value is 2.

And the “Barnyardgrass plant response rating” value (bamyardgrass; Rate 62 g/ha, Postemergence (flood test species), scale of 0 to 10 where 0 is no effect and 10 is complete control)?
The value was 2.

And the “Plant response rating, Barnyardgrass (0 to 10 scale, 0 is no effect, 10 is complete control)” value (bamyardgrass; Rate 62 g/ha, flood test species, Pre-emergence, visual evaluation after twelve to sixteen days)?
The value was 0.

And the “Barnyardgrass plant response rating” value (bamyardgrass; Rate 125 g/ha, Pre-emergence, flood test species, scale 0 to 10 where 0 is no effect and 10 is complete control)?
Its value is 0.

What about the “Plant response rating, Barnyardgrass” value (bamyardgrass; Rate 250 g/ha, Postemergence (flood test species), scale of 0 to 10 where 0 is no effect and 10 is complete control) of the same compound?
Its value is 9.

And the “Barnyardgrass plant response rating” value (bamyardgrass; Rate 250 g/ha, Pre-emergence, flood-test species, scale 0 to 10, 0 is no effect, 10 is complete control)?
Its value is 9.

What about the “Barnyardgrass plant response rating” value (bamyardgrass; Rate 500 g/ha, Pre-emergence, flood test species, scale 0 to 10 (0 no effect, 10 complete control)) of the same compound?
The value was 9.

What about the “Plant response rating, P. morninglory” value (pitted morningglory; [3]) of the same compound?
Its value is 0.

What about the “Plant response rating, P. morninglory” value (pitted morningglory; [4]) of the same compound?
The value was 0.

And the “Plant response rating, P. morninglory” value (pitted morningglory; [5])?
Its value is 0.

What about the “Plant response rating, P. morninglory” value (pitted morningglory; [6]) of the same compound?
The value was 0.

What about the “Plant response rating, P. morninglory” value (pitted morningglory; Rate 250 g/ha) of the same compound?
Its value is 0.

What about the “Plant response rating, Surinam grass” value (surinam grass; [3]) of the same compound?
Its value is 0.

And the “Plant response rating, Surinam grass” value (surinam grass; [4])?
Its value is 0.

And the “Surinam grass plant response rating” value (surinam grass; [5])?
Its value is 0.

What about the “Surinam grass plant response rating” value (surinam grass; [6]) of the same compound?
Its value is 50.

What about the “Plant response rating, Surinam grass” value (surinam grass; Rate 250 g/ha) of the same compound?
The value was 50.
